Results published in patent publication US20240400972A1, “Antifouling Composition and Process for Production Thereof” (priority 2015, published 2024).

Assays:
[1] = system: Strain PF-11; type: cell-based, Pseudomonas putida; details: CLSI standards, EUCAST resistance breakpoints
Experimental: MICS (Minimum Inhibitory Concentration) was determined by agar dilution and disk diffusion according to CLSI standards (CLSI, M02-A10; CLSI, M100-S21). Briefly, LA plates were prepared supplemented with serial dilutions of the antibiotic to be tested to determine the MIC. The lowest antibiotic concentration preventing growth of the strain is considered the MIC value. The strain Escherichia coli ATCC 25922 was used as control strain, as recommended.

[2] = system: sea lice larvae and copepodids; experiment: Sea lice larvae and copepodids viability bioassay; type: in vivo, Lepeophtheirus salmonis salmonis; details: 70 ppm, positive control
Experimental: The assay consisted on incubating sea lice (Lepeophtheirus salmonis salmonis) larvae and copepodids with PF-11 secretome in order to evaluate the viability of the larvae and copepodids compared to a blank control. Sodium hypocholorite (NaoCl), known to kill the larvae within 40 min at 70 ppm, was used as a positive control. Larvae were obtained by sedating salmon sea lice with Benzocain, harvesting egg strings with tweezers, and transferring the strings to a water bath placed in an incubator. Inside the incubator, the water was continuously changed throughout the incubation period. When the larvae were developed, they were removed from the incubator and used in the bioassay. Copepodids were developed from egg strings from sea lice as described for larvae. Seawater containing louse larvae and copepodids was placed in a petri dish and PF-11 secretome was added to the final pretended concentration. Larvae and copepodids in seawater with no added compounds were also used for comparison. The positive control was NaOCl at 70 ppm. The larvae and copepodids viability was checked over time. An evaluation of larvae viability was performed and compared to the viability in the blank controls. The viability in the pure seawater control and the medium blank control was monitored and compared and remained the same throughout the experiment.

[3] = system: sea lice larvae and copepodids; details: 70 ppm; cited from earlier work
[4] = system: extracellular proteases of PF-11 and NTC secretomes; type: biochemical; details: 10 mM inhibitor, relatively to non-treated control
Experimental: Briefly, 12% SDS-polyacrylamide gels (Laemmli 1970) were co-polymerized with 1% casein or gelatin at 4° C. Non reducing loading buffer (62.5 mM Tris, 2% SDS, 10% glycerol, 0.001% bromophenol blue) was added to secretome samples prior to loading. Electrophoresis was performed at 4° C. and 100 V until the bromophenol dye reached the bottom of the gel. After electrophoresis, gels were rinsed two times in 2.5% (v/v) Triton X-100, 30 min each, for SDS removal, followed by three washes, 5 min each, in deionized water. Gels were then incubated in activation buffer (0.1M Tris-HCl, 0.01M CaCl2, pH 8), at 37° C. for enzyme renaturation and subsequent proteolytic activity. The gels were washed three times, 5 min each, in deonized water prior to incubation for 1 h in Coomassie Brilliant Blue R-250. […] Protease activity was visible as clear bands on a blue background. […] Protease inhibition by phenyl methyl sulfonyl fluoride (PMSF) and EDTA was determined as described by Bertolini and Rohovec (Bertolini and Rohovec 1992).
Further evaluations of the type of proteases present in the extracellular protease producers were performed by selective inhibition of serine proteases by PMSF and of metallo-proteases by EDTA.

Structure (SMILES) | susceptibility of strain PF-11 [1] | further results
CO[C@@]1(NC(=O)Cc2cccs2)C(=O)N2C(C(=O)O)=C(COC(N)=O)CS[C@@H]21 [cefoxitine] | resistant | 
[Na+].[O-]Cl [NaOCl, Sodium hypocholorite] |  | required time to become 100% effective [2]: 20 min; time to kill the larvae [3]: ≤ 40 min
CC1(C)S[C@@H]2[C@H](NC(=O)[C@H](N)c3ccccc3)C(=O)N2[C@H]1C(=O)O [ampicilin] | resistant | 
O=S(=O)(F)Cc1ccccc1 [PMSF, phenyl methyl sulfonyl fluoride] |  | inhibition of proteolytic activity of PF-11 and NTC secretomes [4]: significantly lower inhibitory effects
CO/N=C(\C(=O)N[C@@H]1C(=O)N2C(C(=O)O)=C(COC(C)=O)CS[C@H]12)c1csc(N)n1 [cefotaxime] | resistant | 
O=C(O)CN(CCN(CC(=O)O)CC(=O)O)CC(=O)O [EDTA] |  | inhibition of proteolytic activity of PF-11 and NTC secretomes [4]: strongly inhibited
C[C@H]1[C@H](NC(=O)/C(=N\OC(C)(C)C(=O)O)c2csc(N)n2)C(=O)N1S(=O)(=O)O [aztreonam] | resistant | 
CC(C)(O/N=C(\C(=O)N[C@@H]1C(=O)N2C(C(=O)[O-])=C(C[n+]3ccccc3)CS[C@H]12)c1csc(N)n1)C(=O)O [ceftazidime] | resistant | 
CC1(C)S[C@@H]2[C@H](NC(=O)[C@H](N)c3ccc(O)cc3)C(=O)N2[C@H]1C(=O)O [amoxycillin] | resistant | 
